Experiment [1] concerns the target Human recombinant USP1/UAF1 (Homo sapiens (Human), UniProt O94782). Briefly: Enzymatic assay, USP1/UAF1 with Ubiquitin Rhodamine 110. The class given is biochemical. The settings on record: 2 nM USP1/UAF1, 500 nM Ubiquitin Rhodamine 110, 15 minutes preincubation at RT. The protocol: Human recombinant USP1/UAF1 expressed in baculovirus infected Sf21 cells were used (R&D, E-568-050). Test compound and/or vehicle was incubated with 2 nM of USP1/UAF1 in modified HEPES buffer pH 8.0 for 15 minutes at RT. The reaction was initiated by addition of 500 nM of Ubiquitin Rhodamine 110 (R&D, U-555-050) for kinetic reading. Slope change of fluorescence intensity was read spectrofluorimetrically at 485 nm/535 nm.

The next experiment has as its system MDA-MB-436 cells. The experiment in a line: MDA-MB-436 breast cancer cell proliferation assay (CellTiter-Glo). The experiment is classed as cell-based. The settings on record: 7 days. Here is the method: MDA-MB-436 cells were grown in Leibovitz's L-15 medium with 10 ug/ml insulin, 16 ug/ml glutathione, 10% FBS. Cells were passaged at subconfluence after trypsinization and maintained in incubators at 37° C. in a humidified atmosphere with 5% CO2.
Cell proliferation was determined using CellTiter-Glo® Luminescent Cell Viability Assay (Promega, #G7573). MDA-MB-436 cells were seeded in 384-well plates and allowed to attach for 24 h. Compounds were added into 384-well plate by ECHO, and incubated at 37° C. in a humidified atmosphere with 5% CO2. After 7 days, CellTiter-Glo was added into 384 well plates, contents were mixed on an orbital shaker at […] for 2 min before centrifuging the plate for 2 min at 1000 rpm. After incubation at RT for 30 min, luminescence was read on envision.

Human recombinant USP1/UAF1, sequence (O94782 whole entry): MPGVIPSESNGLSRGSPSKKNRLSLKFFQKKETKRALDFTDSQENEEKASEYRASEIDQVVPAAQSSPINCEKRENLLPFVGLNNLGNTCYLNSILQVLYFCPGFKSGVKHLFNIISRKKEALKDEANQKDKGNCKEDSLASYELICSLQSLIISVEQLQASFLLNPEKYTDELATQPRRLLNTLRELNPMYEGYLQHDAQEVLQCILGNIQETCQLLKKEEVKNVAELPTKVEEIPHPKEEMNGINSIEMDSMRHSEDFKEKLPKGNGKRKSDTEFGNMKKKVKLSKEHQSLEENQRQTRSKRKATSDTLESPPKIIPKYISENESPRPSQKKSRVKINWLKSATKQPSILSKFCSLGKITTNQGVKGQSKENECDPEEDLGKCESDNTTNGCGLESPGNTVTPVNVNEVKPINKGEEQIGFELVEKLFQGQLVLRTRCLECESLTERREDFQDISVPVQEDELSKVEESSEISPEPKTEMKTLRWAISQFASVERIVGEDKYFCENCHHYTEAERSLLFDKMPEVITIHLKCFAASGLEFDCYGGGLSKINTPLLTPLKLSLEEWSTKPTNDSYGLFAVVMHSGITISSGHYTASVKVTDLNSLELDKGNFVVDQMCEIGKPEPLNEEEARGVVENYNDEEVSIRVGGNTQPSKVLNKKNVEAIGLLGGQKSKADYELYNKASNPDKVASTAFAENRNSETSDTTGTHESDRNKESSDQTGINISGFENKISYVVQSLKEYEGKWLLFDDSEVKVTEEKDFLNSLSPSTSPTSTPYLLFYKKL
Human recombinant USP1/UAF1, sequence (Q8TAF3 whole entry partner): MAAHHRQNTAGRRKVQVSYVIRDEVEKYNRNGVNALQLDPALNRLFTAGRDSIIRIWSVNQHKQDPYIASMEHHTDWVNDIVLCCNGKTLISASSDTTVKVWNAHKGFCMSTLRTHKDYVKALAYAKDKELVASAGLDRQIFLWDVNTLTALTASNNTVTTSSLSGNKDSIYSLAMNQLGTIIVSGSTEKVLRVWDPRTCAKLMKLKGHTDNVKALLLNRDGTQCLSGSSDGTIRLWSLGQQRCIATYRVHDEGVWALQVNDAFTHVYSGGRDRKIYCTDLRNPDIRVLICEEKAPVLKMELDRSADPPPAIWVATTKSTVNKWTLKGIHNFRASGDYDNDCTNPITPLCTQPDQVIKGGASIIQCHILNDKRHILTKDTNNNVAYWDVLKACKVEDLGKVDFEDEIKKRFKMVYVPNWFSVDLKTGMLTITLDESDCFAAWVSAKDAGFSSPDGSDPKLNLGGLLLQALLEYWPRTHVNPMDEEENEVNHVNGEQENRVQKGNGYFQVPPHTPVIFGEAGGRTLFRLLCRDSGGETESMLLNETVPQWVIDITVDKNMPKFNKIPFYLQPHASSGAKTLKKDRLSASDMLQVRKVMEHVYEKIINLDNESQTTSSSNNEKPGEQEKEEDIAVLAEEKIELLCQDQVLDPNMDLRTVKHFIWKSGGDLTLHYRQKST

Turning to `CC(C)c1ncccc1-c1nn(C)c2c1CN(c1ccc(-c3nc(C(F)(F)F)cn3C)cc1)CC2` [Example 1, 3-(2-isopropylpyridin-3-yl)-1-methyl-5-(4-(1-methyl-4-(trifluoromethyl)-1H-imidazol-2-yl)phenyl)-4,5,6,7-tetrahydro-1H-pyrazolo[4,3-c]pyridine], the half-maximal inhibitory concentration (IC50) (commonly the concentration needed to halve the response being measured) in experiment [1] was below 50 nM; in the experiment on MDA-MB-436 cells (Homo sapiens, 168 h), below 50 nM.

For the molecule `CC(C)c1ncncc1-c1nn(C)c2c1CN(c1ccc(-c3nc(C(F)(F)F)cn3C)cc1)CC2` [Example 2, 3-(4-isopropylpyrimidin-5-yl)-1-methyl-5-(4-(1-methyl-4-(trifluoromethyl)-1H-imidazol-2-yl)phenyl)-4,5,6,7-tetrahydro-1H-pyrazolo[4,3-c]pyridine], the half-maximal inhibitory concentration (IC50) in experiment [1] fell in the range of 50 to 1000 nM; in the experiment with MDA-MB-436 cells (Homo sapiens, 168 h) it was 50 to 1000 nM.

Regarding `COc1ncnc(C2CC2)c1-c1nn(C)c2c1CN(c1ccc(-c3nc(C(F)(F)F)cn3C)cc1)CC2` [Example 3, 3-(4-cyclopropyl-6-methoxypyrimidin-5-yl)-1-methyl-5-(4-(1-methyl-4-(trifluoromethyl)-1H-imidazol-2-yl)phenyl)-4,5,6,7-tetrahydro-1H-pyrazolo[4,3-c]pyridine], the IC50 was below 50 nM in experiment [1] and below 50 nM with MDA-MB-436 cells (Homo sapiens, 168 h).

On to `[2H]C([2H])([2H])n1nc(-c2c(OC)ncnc2C2CC2)c2c1CCN(c1ccc(-c3nc(C(F)(F)F)cn3C(C)C)cc1)C2` [Example 4, 3-(4-cyclopropyl-6-methoxypyrimidin-5-yl)-5-(4-(1-isopropyl-4-(trifluoromethyl)-1H-imidazol-2-yl)phenyl)-1-(methyl-d3)-4,5,6,7-tetrahydro-1H-pyrazolo[4,3-c]pyridine], for which the half-maximal inhibitory concentration (IC50) was below 50 nM in experiment [1] and below 50 nM with MDA-MB-436 cells (Homo sapiens, 168 h).

With `COc1ncnc(C2CC2)c1-c1nn(C)c2c1CN(c1ccc(-c3nc(C(F)(F)F)cn3C)cn1)CC2` [Example 5, 3-(4-cyclopropyl-6-methoxypyrimidin-5-yl)-1-methyl-5-(5-(1-methyl-4-(trifluoromethyl)-1H-imidazol-2-yl)pyridin-2-yl)-4,5,6,7-tetrahydro-1H-pyrazolo[4,3-c]pyridine], the IC50 was below 50 nM in experiment [1] and below 50 nM with MDA-MB-436 cells (Homo sapiens, 168 h).

Turning to `COc1ncnc(C2CC2)c1-c1nn(C)c2c1CN(c1ccc(-c3nc(C(F)(F)F)cn3C)nc1)CC2` [Example 6, 3-(4-cyclopropyl-6-methoxypyrimidin-5-yl)-1-methyl-5-(6-(1-methyl-4-(trifluoromethyl)-1H-imidazol-2-yl)pyridin-3-yl)-4,5,6,7-tetrahydro-1H-pyrazolo[4,3-c]pyridine], the IC50 in experiment [1] is below 50 nM; in the experiment with MDA-MB-436 cells (Homo sapiens, 168 h), below 50 nM.

With `COc1ncnc(C2CC2)c1-c1nn(C)c2c1CN(c1ccc(-c3nc(C(F)(F)F)cn3C)cc1F)CC2` [Example 7, 3-(4-cyclopropyl-6-methoxypyrimidin-5-yl)-5-(2-fluoro-4-(1-methyl-4-(trifluoromethyl)-1H-imidazol-2-yl)phenyl)-1-methyl-4,5,6,7-tetrahydro-1H-pyrazolo[4,3-c]pyridine], the IC50 is below 50 nM in experiment [1] and below 50 nM in the experiment on MDA-MB-436 cells (Homo sapiens, 168 h).

On to `COc1ncnc(C2CC2)c1-c1nn(C)c2c1CN(c1ccc(-c3nc(C(F)(F)F)cn3C)c(F)c1)CC2` [Example 8, 3-(4-cyclopropyl-6-methoxypyrimidin-5-yl)-5-(3-fluoro-4-(1-methyl-4-(trifluoromethyl)-1H-imidazol-2-yl)phenyl)-1-methyl-4,5,6,7-tetrahydro-1H-pyrazolo[4,3-c]pyridine], for which the IC50 in experiment [1] is below 50 nM; in the experiment with MDA-MB-436 cells (Homo sapiens, 168 h), below 50 nM.

In the case of `COc1ncnc(C2CC2)c1-c1nn(C(F)F)c2c1CN(c1ccc(-c3nc(C(F)(F)F)cn3C)cc1)CC2` [Example 9, 3-(4-cyclopropyl-6-methoxypyrimidin-5-yl)-1-(difluoromethyl)-5-(4-(1-methyl-4-(trifluoromethyl)-1H-imidazol-2-yl)phenyl)-4,5,6,7-tetrahydro-1H-pyrazolo[4,3-c]pyridine], the IC50 is below 50 nM in experiment [1] and below 50 nM with MDA-MB-436 cells (Homo sapiens, 168 h).

Consider `COc1ncnc(C2CC2)c1-c1nn(C)c2c1CN(c1ccc(-c3nc(C(F)(F)F)cn3C(C)C)cn1)CC2` [Example 10, 3-(4-cyclopropyl-6-methoxypyrimidin-5-yl)-5-(5-(1-isopropyl-4-(trifluoromethyl)-1H-imidazol-2-yl)pyridin-2-yl)-1-methyl-4,5,6,7-tetrahydro-1H-pyrazolo[4,3-c]pyridine], for which the half-maximal inhibitory concentration (IC50) in experiment [1] was below 50 nM; in the experiment on MDA-MB-436 cells (Homo sapiens, 168 h), below 50 nM.

In the case of `[2H]C([2H])([2H])n1nc(-c2c(OC)ncnc2C2CC2)c2c1CCN(c1ccc(-c3nc(C(F)(F)F)cn3C(C)C)cn1)C2` [Example 11, 3-(4-cyclopropyl-6-methoxypyrimidin-5-yl)-5-(5-(1-isopropyl-4-(trifluoromethyl)-1H-imidazol-2-yl)pyridin-2-yl)-1-(methyl-d3)-4,5,6,7-tetrahydro-1H-pyrazolo[4,3-c]pyridine], the IC50 in experiment [1] was below 50 nM; in the experiment on MDA-MB-436 cells (Homo sapiens, 168 h) it was below 50 nM.

On to `Cc1ncnc(C2CC2)c1-c1nn(C)c2c1CN(c1ccc(-c3nc(C(F)(F)F)cn3C)cn1)CC2` [Example 13, 3-(4-cyclopropyl-6-methylpyrimidin-5-yl)-1-methyl-5-(5-(1-methyl-4-(trifluoromethyl)-1H-imidazol-2-yl)pyridin-2-yl)-4,5,6,7-tetrahydro-1H-pyrazolo[4,3-c]pyridine], for which the half-maximal inhibitory concentration (IC50) in experiment [1] lay in the range of 50 to 1000 nM; in the experiment with MDA-MB-436 cells (Homo sapiens, 168 h), 50 to 1000 nM.

For the molecule `COc1ncnc(C2CC2)c1-c1nn(C)c2c1CN(c1ccc(-n3nc(C(F)(F)F)cc3C)cn1)CC2` [Example 15, 3-(4-cyclopropyl-6-methoxypyrimidin-5-yl)-1-methyl-5-(5-(5-methyl-3-(trifluoromethyl)-1H-pyrazol-1-yl)pyridin-2-yl)-4,5,6,7-tetrahydro-1H-pyrazolo[4,3-c]pyridine], the IC50 in experiment [1] was below 50 nM; in the experiment with MDA-MB-436 cells it was 50 to 1000 nM.

Turning to `CCn1nc(-c2c(OC)ncnc2C2CC2)c2c1CCN(c1ccc(-c3nc(C(F)(F)F)cn3C)cn1)C2` [Example 16, 3-(4-cyclopropyl-6-methoxypyrimidin-5-yl)-1-ethyl-5-(5-(1-methyl-4-(trifluoromethyl)-1H-imidazol-2-yl)pyridin-2-yl)-4,5,6,7-tetrahydro-1H-pyrazolo[4,3-c]pyridine], the half-inhibitory concentration (IC50) in experiment [1] was 50 to 1000 nM; with MDA-MB-436 cells (Homo sapiens, 168 h), 50 to 1000 nM.

Turning to `[2H]C([2H])([2H])n1nc(-c2c(OC)ncnc2C2CC2)c2c1CCN(c1ccc(-c3nc(C(F)(F)F)cn3C)cc1)C2` [Example 17, 3-(4-cyclopropyl-6-methoxypyrimidin-5-yl)-1-(methyl-d3)-5-(4-(1-methyl-4-(trifluoromethyl)-1H-imidazol-2-yl)phenyl)-4,5,6,7-tetrahydro-1H-pyrazolo[4,3-c]pyridine], the IC50 was below 50 nM in experiment [1] and below 50 nM in the experiment with MDA-MB-436 cells (Homo sapiens, 168 h).

Regarding `[2H]C([2H])([2H])n1nc(-c2c(OC)ncnc2C2CC2)c2c1CCN(c1ccc(-c3nc(C(F)(F)F)cn3C)cn1)C2` [Example 18, 3-(4-cyclopropyl-6-methoxypyrimidin-5-yl)-1-(methyl-d3)-5-(5-(1-methyl-4-(trifluoromethyl)-1H-imidazol-2-yl)pyridin-2-yl)-4,5,6,7-tetrahydro-1H-pyrazolo[4,3-c]pyridine], the IC50 in experiment [1] was below 50 nM; with MDA-MB-436 cells (Homo sapiens, 168 h), below 50 nM.

With `COc1ncnc(C2CC2)c1-c1n[nH]c2c1CN(c1ccc(-c3nc(C(F)(F)F)cn3C(C)C)cn1)CC2` [Example 20, 3-(4-cyclopropyl-6-methoxypyrimidin-5-yl)-5-(5-(1-isopropyl-4-(trifluoromethyl)-1H-imidazol-2-yl)pyridin-2-yl)-4,5,6,7-tetrahydro-1H-pyrazolo[4,3-c]pyridine], the IC50 in experiment [1] fell in the range of 50 to 1000 nM; in the experiment with MDA-MB-436 cells (Homo sapiens, 168 h) it was 50 to 1000 nM.

On to `Cn1cc(C(F)(F)F)nc1-c1ccc(N2CCc3c(c(-c4cccnc4OC(F)F)nn3C)C2)cc1` [Example 24, 3-(2-(difluoromethoxy)pyridin-3-yl)-1-methyl-5-(4-(1-methyl-4-(trifluoromethyl)-1H-imidazol-2-yl)phenyl)-4,5,6,7-tetrahydro-1H-pyrazolo[4,3-c]pyridine], for which the IC50 in experiment [1] was below 50 nM; in the experiment on MDA-MB-436 cells (Homo sapiens, 168 h), 50 to 1000 nM.

`CCn1cc(C(F)(F)F)nc1-c1ccc(N2CCc3c(c(-c4c(OC)ncnc4C4CC4)nn3C)C2)nc1` [Example 25, 3-(4-cyclopropyl-6-methoxypyrimidin-5-yl)-5-(5-(1-ethyl-4-(trifluoromethyl)-1H-imidazol-2-yl)pyridin-2-yl)-1-methyl-4,5,6,7-tetrahydro-1H-pyrazolo[4,3-c]pyridine]: the IC50 in experiment [1] was below 50 nM; in the experiment with MDA-MB-436 cells (Homo sapiens, 168 h) it was below 50 nM.

Turning to `COc1ncnc(C2CC2)c1-c1nn(C)c2c1CN(c1cnc(-c3nc(C(F)(F)F)cn3C)nc1)CC2` [Example 26, 3-(4-cyclopropyl-6-methoxypyrimidin-5-yl)-1-methyl-5-(2-(1-methyl-4-(trifluoromethyl)-1H-imidazol-2-yl)pyrimidin-5-yl)-4,5,6,7-tetrahydro-1H-pyrazolo[4,3-c]pyridine], the IC50 in experiment [1] was in the range of 50 to 1000 nM; with MDA-MB-436 cells (Homo sapiens, 168 h), 50 to 1000 nM.

The values are drawn from patent US11739077B2, “Small molecule inhibitors of ubiquitin specific protease 1 (USP1) and uses thereof” (Insilico Medicine IP Limited, priority 2021, dated 2023).
